Laboratory results as given in US20110200535A1, “DAA-PYRIDINE AS PERIPHERAL BENZODIAZEPINE RECEPTOR LIGAND FOR DIAGNOSTIC IMAGING AND PHARMACEUTICAL TREATMENT” (BAYER SCHERING PHARMA AKTIENGESELLSCHAFT, priority 2008, published 2011).
“And” between values parts separate entries of the source, which are not always exact repeats. Identical values can stand only once.

Tests used:
Type in all cases: in vivo
[1] = Biodistribution of [^18F]-radioactivity in healthy male NMRI mice after intravenous injection (gamma counter); settings: for Elimination from mouse brain, 2 min/30 min ratio of brain uptake (% ID/g): 2 min to 30 min; for [^18F]-radioactivity in adrenals / [^18F]-radioactivity in blood / [^18F]-radioactivity in bone / [^18F]-radioactivity in brain (brain uptake) / [^18F]-radioactivity in fat / [^18F]-radioactivity in heart / [^18F]-radioactivity in intestine / [^18F]-radioactivity in kidney / [^18F]-radioactivity in liver / [^18F]-radioactivity in lung / [^18F]-radioactivity in muscle / [^18F]-radioactivity in pancreas / [^18F]-radioactivity in skin / [^18F]-radioactivity in spleen / [^18F]-radioactivity in stomach / [^18F]-radioactivity in testes / [^18F]-radioactivity in thyroid: normal mice, i.v., decay corrected
Description: (§1) The biodistribution of [^18F]-2d and [^18F]-5d was investigated in healthy male NMRI mice (28.3-35.6 g body weight, n=3 animals per time point) at 2, 5, 30, 60 and 180/240 min after intravenous injection of 0.264 MBq [^18F]-2d and 0.268 MBq [^18F]-5d per animal, respectively. Until the indicated time points urine and faeces were quantitatively collected. At the respective time points the mice were sacrificed and the tissues were removed. [^18F]-radioactivity was analyzed in a gamma counter (Tab. 1.1, 2.1 and 1.2, 2.2).

[2] = Excretion of [^18F]-radioactivity via urine and faeces in normal mice (gamma counter); settings: i.v., decay corrected
Description: as §1

[3] = molecular target: T1, peripheral benzodiazepine receptor (PBR) (Rattus norvegicus, UniProt P16257); experiment: Ex vivo autoradiography of brain sections, rat kainic acid induced epilepsy model; settings: for Hipp/Cereb ratio (signal-to-background ratio, hippocampus/cerebellum): rat kainic acid model, 30 min ex vivo autoradiography
T1 construct: from tissue; host or cells: rat brain (hippocampus, cerebellum) after i.v. tracer injection
Description: Using a rat kainic acid induced epilepsy model and respective sham controls the accumulation of [^18F]-2d and [^18F]-5d was visualized ex vivo. In brief, epilepsy was induced in rats by injecting kainic acid i.p. At day eight after the start of the kainic acid treatment [^18F]-2d and [^18F]-5d were injected into the tail vein of the rats and their sham treated controls (PBS instead of kainic acid) at a dose of 25.8-35.8 MBq (approximately 1.0 μg) per rat. Thirty minutes after intravenous injection the rats were sacrificed, the brains were taken out, snap frozen and sliced transversally in a cryostat. The slices were exposed to PhosphoImager plates over night. The resulting autoradiographic signals were analyzed qualitatively and quantitatively (FIG. 2.1 A and C, 2.2 A and C). […] To determine the specificity of the [^18F]-2d and [^18F]-5d binding, kainic acid treated rats were co-injected with [^19F]-2e and [^19F]-5e, respectively.
The autoradiographic signals were quantified. The signal intensity in a hippocampal region of interest (ROI) was measured and compared to a ROI in the cerebellum, that was used as reference region.

## COc1ccc(OCC[18F])c(CN(C(C)=O)c2cccnc2Oc2cccc(C)c2C)c1 [[^18F]-5d, N-[2-(2,3-dimethylphenoxy)pyridin-3-yl]-N-[2-(2-[^18F]fluoroethoxy)-5-methoxybenzyl]acetamide]
[1]; mice, 30 min p.i.
  Initial elimination of the radioactivity from the brain: ca. 73%
[1]; mice
  Elimination from mouse brain, 2 min/30 min ratio of brain uptake (% ID/g): 3.7
[1]; 2 min
  [^18F]-radioactivity in adrenals: 9.90 ± 1.17 % injected dose/g
  [^18F]-radioactivity in blood: 2.75 ± 0.40 % injected dose/g
  [^18F]-radioactivity in bone: 1.02 ± 0.31 % injected dose/g
  [^18F]-radioactivity in brain (brain uptake): 1.61±0.23 % injected dose/g
  [^18F]-radioactivity in fat: 0.24 ± 0.08 % injected dose/g
  [^18F]-radioactivity in heart: 17.21 ± 1.43 % injected dose/g
  [^18F]-radioactivity in intestine: 0.77 ± 0.24 % injected dose/g
  [^18F]-radioactivity in kidney: 6.15 ± 1.95 % injected dose/g
  [^18F]-radioactivity in liver: 1.51 ± 0.38 % injected dose/g
  [^18F]-radioactivity in lung: 65.87 ± 15.87 % injected dose/g
  [^18F]-radioactivity in muscle: 1.23 ± 0.27 % injected dose/g
  [^18F]-radioactivity in pancreas: 1.54 ± 0.34 % injected dose/g
  [^18F]-radioactivity in skin: 0.52 ± 0.02 % injected dose/g
  [^18F]-radioactivity in spleen: 1.40 ± 0.06 % injected dose/g
  [^18F]-radioactivity in stomach: 2.03 ± 1.05 % injected dose/g
  [^18F]-radioactivity in testes: 0.50 ± 0.01 % injected dose/g
  [^18F]-radioactivity in thyroid: 3.97 ± 1.12 % injected dose/g
[1]; 5 min
  [^18F]-radioactivity in adrenals: 28.94 ± 11.26 % injected dose/g
  [^18F]-radioactivity in blood: 2.13 ± 0.23 % injected dose/g
  [^18F]-radioactivity in bone: 1.41 ± 0.19 % injected dose/g
  [^18F]-radioactivity in brain (brain uptake): 1.13 ± 0.22 % injected dose/g
  [^18F]-radioactivity in fat: 0.24 ± 0.03 % injected dose/g
  [^18F]-radioactivity in heart: 18.45 ± 1.69 % injected dose/g
  [^18F]-radioactivity in intestine: 1.42 ± 0.02 % injected dose/g
  [^18F]-radioactivity in kidney: 8.53 ± 1.50 % injected dose/g
  [^18F]-radioactivity in liver: 2.19 ± 31^ % injected dose/g
  [^18F]-radioactivity in lung: 45.38 ± 5.54 % injected dose/g
  [^18F]-radioactivity in muscle: 1.89 ± 0.32 % injected dose/g
  [^18F]-radioactivity in pancreas: 2.37 ± 0.56 % injected dose/g
  [^18F]-radioactivity in skin: 0.79 ± 0.07 % injected dose/g
  [^18F]-radioactivity in spleen: 3.25 ± 0.15 % injected dose/g
  [^18F]-radioactivity in stomach: 3.04 ± 0.49 % injected dose/g
  [^18F]-radioactivity in testes: 0.71 ± 0.10 % injected dose/g
  [^18F]-radioactivity in thyroid: 4.25 ± 0.79 % injected dose/g
[1]; 30 min
  [^18F]-radioactivity in adrenals: 12.31 ± 0.43 % injected dose/g
  [^18F]-radioactivity in blood: 0.80 ± 0.17 % injected dose/g
  [^18F]-radioactivity in bone: 2.05 ± 0.08 % injected dose/g
  [^18F]-radioactivity in brain (brain uptake): 0.44±0.15 % injected dose/g and 0.44 ± 0.51 % injected dose/g
  [^18F]-radioactivity in fat: 0.61 ± 0.26 % injected dose/g
  [^18F]-radioactivity in heart: 7.53 ± 2.41 % injected dose/g
  [^18F]-radioactivity in intestine: 2.48 ± 0.78 % injected dose/g
  [^18F]-radioactivity in kidney: 9.53 ± 0.82 % injected dose/g
  [^18F]-radioactivity in liver: 3.52 ± 1.35 % injected dose/g
  [^18F]-radioactivity in lung: 9.83 ± 1.66 % injected dose/g
  [^18F]-radioactivity in muscle: 2.14 ± 0.31 % injected dose/g
  [^18F]-radioactivity in pancreas: 2.46 ± 0.19 % injected dose/g
  [^18F]-radioactivity in skin: 1.23 ± 0.21 % injected dose/g
  [^18F]-radioactivity in spleen: 5.68 ± 0.59 % injected dose/g
  [^18F]-radioactivity in stomach: 3.01 ± 0.70 % injected dose/g
  [^18F]-radioactivity in testes: 0.75 ± 0.19 % injected dose/g
  [^18F]-radioactivity in thyroid: 3.81 ± 0.42 % injected dose/g
[1]; 60 min
  [^18F]-radioactivity in adrenals: 16.66 ± 2.86 % injected dose/g
  [^18F]-radioactivity in blood: 0.75 ± 0.01 % injected dose/g
  [^18F]-radioactivity in bone: 1.69 ± 0.26 % injected dose/g
  [^18F]-radioactivity in brain (brain uptake): 0.34 ± 0.06 % injected dose/g
  [^18F]-radioactivity in fat: 3.27 ± 0.30 % injected dose/g
  [^18F]-radioactivity in heart: 5.76 ± 0.87 % injected dose/g
  [^18F]-radioactivity in intestine: 3.31 ± 0.16 % injected dose/g
  [^18F]-radioactivity in kidney: 9.57 ± 0.76 % injected dose/g
  [^18F]-radioactivity in liver: 2.35 ± 0.35 % injected dose/g
  [^18F]-radioactivity in lung: 6.46 ± 1.07 % injected dose/g
  [^18F]-radioactivity in muscle: 2.13 ± 0.21 % injected dose/g
  [^18F]-radioactivity in pancreas: 2.34 ± 0.48 % injected dose/g
  [^18F]-radioactivity in skin: 1.39 ± 0.10 % injected dose/g
  [^18F]-radioactivity in spleen: 5.79 ± 0.10 % injected dose/g
  [^18F]-radioactivity in stomach: 4.21 ± 0.25 % injected dose/g
  [^18F]-radioactivity in testes: 0.90 ± 0.10 % injected dose/g
  [^18F]-radioactivity in thyroid: 3.21 ± 0.75 % injected dose/g
[1]; 240 min
  [^18F]-radioactivity in adrenals: 13.93 ± 6.07 % injected dose/g
  [^18F]-radioactivity in blood: 0.60 ± 0.07 % injected dose/g
  [^18F]-radioactivity in bone: 2.6 % injected dose/g and 2.59 ± 0.56 % injected dose/g
  [^18F]-radioactivity in brain (brain uptake): 0.32 ± 0.08 % injected dose/g
  [^18F]-radioactivity in fat: 0.86 ± 0.10 % injected dose/g
  [^18F]-radioactivity in heart: 2.21 ± 0.24 % injected dose/g
  [^18F]-radioactivity in intestine: 3.96 ± 0.16 % injected dose/g
  [^18F]-radioactivity in kidney: 6.84 ± 0.69 % injected dose/g
  [^18F]-radioactivity in liver: 1.76 ± 0.23 % injected dose/g
  [^18F]-radioactivity in lung: 3.42 ± 0.73 % injected dose/g
  [^18F]-radioactivity in muscle: 1.32 ± 0.11 % injected dose/g
  [^18F]-radioactivity in pancreas: 1.41 ± 0.22 % injected dose/g
  [^18F]-radioactivity in skin: 1.47 ± 0.06 % injected dose/g
  [^18F]-radioactivity in spleen: 3.02 ± 0.25 % injected dose/g
  [^18F]-radioactivity in stomach: 3.43 ± 0.54 % injected dose/g
  [^18F]-radioactivity in testes: 0.94 ± 0.12 % injected dose/g
  [^18F]-radioactivity in thyroid: 2.50 ± 0.15 % injected dose/g
[2]; 2 min
  Excretion of [^18F]-radioactivity via faeces: 0.00 ± 0.00 % injected dose
  Excretion of [^18F]-radioactivity via urine: 0.02 ± 0.02 % injected dose
[2]; 5 min
  Excretion of [^18F]-radioactivity via faeces: 0.00 ± 0.00 % injected dose
  Excretion of [^18F]-radioactivity via urine: 0.04 ± 0.00 % injected dose
[2]; 30 min
  Excretion of [^18F]-radioactivity via faeces: 0.03 ± 0.02 % injected dose
  Excretion of [^18F]-radioactivity via urine: 2.33 ± 1.20 % injected dose
[2]; 60 min
  Excretion of [^18F]-radioactivity via faeces: 0.04 ± 0.02 % injected dose
  Excretion of [^18F]-radioactivity via urine: 4.21 ± 0.97 % injected dose
[2]; 240 min
  Excretion of [^18F]-radioactivity via faeces: 0.74±1.01 % injected dose
  Excretion of [^18F]-radioactivity via urine: 15.24±1.25 % injected dose
[3]; kainic acid treated rats, co-injected with [^19F]-2e and [^19F]-5e, respectively
  Specificity of binding: autoradiographic signal on co-injection of the corresponding [^19F] compound: significantly reduced autoradiographic signal
[3]
  Hipp/Cereb ratio (signal-to-background ratio, hippocampus/cerebellum): 3.0 ± 0.9
[3]; listed as 5d
  Hipp/Cereb ratio (signal-to-background ratio, hippocampus/cerebellum): 3.0±0.9

## COc1ccc(OCC[18F])c(CN(C(C)=O)c2cc(F)ccc2Oc2ccccc2)c1 [[^18F]-FEDAA1106, reference compound]
[1]; mice
  Elimination from mouse brain, 2 min/30 min ratio of brain uptake (% ID/g): 2.0
[1]; mice, listed as FEDAA
  Elimination from mouse brain, 2 min/30 min ratio of brain uptake (% ID/g): 2.00
[3]
  Hipp/Cereb ratio (signal-to-background ratio, hippocampus/cerebellum): 1.2±0.2

## COc1ccc(OCC[18F])c(CN(C(C)=O)c2cccnc2Cc2ccc(F)cc2)c1 [compound 21]
[1]; mice
  Elimination from mouse brain, 2 min/30 min ratio of brain uptake (% ID/g): 4.85
